Measurements reported in ChEMBL document CHEMBL5465560, “Selectivity Literature for EUbOPEN Chemogenomic Library” (2024).

How the values were obtained:
[1] = biological target: T1, Mitogen-activated protein kinase kinase kinase 6 (Homo sapiens) (UniProt O95382); assay: Selectivity interaction (KinomeScan (DiscoverX)) EUB0001619a MAP3K6; details: at 1 µM
T1 sequence (whole entry): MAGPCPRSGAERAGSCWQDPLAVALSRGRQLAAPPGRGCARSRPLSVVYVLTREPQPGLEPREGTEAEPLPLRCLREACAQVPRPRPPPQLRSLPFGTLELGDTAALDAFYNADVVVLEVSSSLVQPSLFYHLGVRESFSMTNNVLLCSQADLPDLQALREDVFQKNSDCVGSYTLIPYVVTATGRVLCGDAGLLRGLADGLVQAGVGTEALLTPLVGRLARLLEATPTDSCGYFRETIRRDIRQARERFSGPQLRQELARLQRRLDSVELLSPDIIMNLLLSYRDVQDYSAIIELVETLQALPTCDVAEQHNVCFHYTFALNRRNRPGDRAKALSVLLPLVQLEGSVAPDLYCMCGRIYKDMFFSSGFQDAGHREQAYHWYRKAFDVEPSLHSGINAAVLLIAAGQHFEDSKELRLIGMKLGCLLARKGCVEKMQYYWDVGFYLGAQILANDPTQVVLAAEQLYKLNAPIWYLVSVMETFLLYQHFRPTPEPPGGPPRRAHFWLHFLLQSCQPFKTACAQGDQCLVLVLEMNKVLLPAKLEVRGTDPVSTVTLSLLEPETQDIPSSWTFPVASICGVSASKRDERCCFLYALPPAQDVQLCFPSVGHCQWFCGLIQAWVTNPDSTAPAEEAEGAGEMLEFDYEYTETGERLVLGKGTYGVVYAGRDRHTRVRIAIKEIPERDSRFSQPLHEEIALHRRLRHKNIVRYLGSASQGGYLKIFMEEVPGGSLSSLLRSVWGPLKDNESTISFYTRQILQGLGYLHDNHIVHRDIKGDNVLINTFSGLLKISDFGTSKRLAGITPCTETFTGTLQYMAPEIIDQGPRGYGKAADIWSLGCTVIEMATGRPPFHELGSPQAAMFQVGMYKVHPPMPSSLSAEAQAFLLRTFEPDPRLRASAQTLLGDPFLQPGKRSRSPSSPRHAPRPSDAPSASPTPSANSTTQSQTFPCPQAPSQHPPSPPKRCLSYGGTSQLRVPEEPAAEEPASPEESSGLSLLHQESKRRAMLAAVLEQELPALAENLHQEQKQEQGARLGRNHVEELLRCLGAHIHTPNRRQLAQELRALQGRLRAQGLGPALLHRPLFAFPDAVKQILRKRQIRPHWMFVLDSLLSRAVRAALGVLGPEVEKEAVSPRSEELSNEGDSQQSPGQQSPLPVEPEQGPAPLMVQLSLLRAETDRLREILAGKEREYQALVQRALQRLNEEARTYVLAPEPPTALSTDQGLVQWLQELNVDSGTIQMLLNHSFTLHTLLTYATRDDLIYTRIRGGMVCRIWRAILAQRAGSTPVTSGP

[2] = biological target: T2, MAP/microtubule affinity-regulating kinase 4 (Homo sapiens) (UniProt Q96L34); assay: Selectivity interaction (Kinase panel (KiNativ target engagement assay in Jurkat cells)) EUB0001635a MARK4; format: cell-based; details: Selectivity number of off-targets 0.0, Selectivity number of targets 233.0, Source Knowledge https://www.sciencedirect.com/science/article/pii/S2451945619300674?via%3Dihub, at 1 µM
T2 sequence (whole entry): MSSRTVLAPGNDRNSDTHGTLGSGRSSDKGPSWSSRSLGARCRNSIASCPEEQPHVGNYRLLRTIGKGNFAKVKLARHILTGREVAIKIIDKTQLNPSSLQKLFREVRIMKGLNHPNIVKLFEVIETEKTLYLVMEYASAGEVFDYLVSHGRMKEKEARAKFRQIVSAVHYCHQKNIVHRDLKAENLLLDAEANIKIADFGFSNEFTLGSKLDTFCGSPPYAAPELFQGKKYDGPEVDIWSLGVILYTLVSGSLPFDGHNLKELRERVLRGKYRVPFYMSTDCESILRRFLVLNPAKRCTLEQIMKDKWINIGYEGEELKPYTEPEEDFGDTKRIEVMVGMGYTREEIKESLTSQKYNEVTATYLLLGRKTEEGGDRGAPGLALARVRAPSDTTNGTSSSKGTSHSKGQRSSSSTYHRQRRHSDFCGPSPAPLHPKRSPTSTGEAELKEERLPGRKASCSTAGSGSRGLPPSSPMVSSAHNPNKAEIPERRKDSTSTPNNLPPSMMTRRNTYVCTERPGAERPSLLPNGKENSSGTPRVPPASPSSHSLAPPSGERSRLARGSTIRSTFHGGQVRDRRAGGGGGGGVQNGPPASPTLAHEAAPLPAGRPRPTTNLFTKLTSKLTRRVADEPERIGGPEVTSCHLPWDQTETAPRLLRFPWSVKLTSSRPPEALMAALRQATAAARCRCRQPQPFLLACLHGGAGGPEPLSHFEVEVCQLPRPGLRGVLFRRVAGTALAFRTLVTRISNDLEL

Row | SMILES | % of control [1] | % of engagement [2]
1 | N#Cc1cccc(-c2c[nH]c3ncnc(N4CCOCC4)c23)c1 | 57% | –
2 | C=CC(=O)Nc1ccc(C(=O)Nc2[nH]nc3c2CN(C(=O)N[C@H](CN(C)C)c2ccccc2)C3(C)C)cc1 | – | 37%
